Measurements as given in ChEMBL document CHEMBL2412996, “Increase of anti-HIV activity of C-peptide fusion inhibitors using a bivalent drug design approach” (Bioorg Med Chem Lett, 2013).
Numbered stars: 1 amine (or outer) side, 2 acyl side, 3 side chain; on linkers, the order of the positions; unused ones are H or OH. Square brackets hold non-standard residues; d marks the D form. Peptide text beside a SMILES is read from it. * marks the point of attachment. X2 = CC(=O)N[C@@H](CS)C(=O)OCCOCCOCCN([C@@H](Cc1c[nH]c2ccccc12)C(=O)[*:2])[*:1]; X1 = CC(=O)N[C@@H](CS)C(=O)OCCOCCOCCNCCC(=O)*; Ahx = NCCCCCC(=O)O

Key:
[1] = Inhibition of HIV1 HXB2 gp160-mediated cell-cell fusion between viral envelope expressing human HL2/3 cells to human TZM-bl cells expressing CD4, tat, and rev by luciferase reporter gene assay; format: cell-based; conditions: Human immunodeficiency virus 1, HXB2, TZM-bl
TZM-bl = assay: Inhibition of HIV1 HXB2 gp160-mediated cell-cell fusion between viral envelope expressing human HL2/3 cells to human TZM-bl cells expressing CD4, tat, and rev by luciferase reporter gene assay relative to C29; format: cell-based; conditions: Human immunodeficiency virus 1

Row | SMILES | IC50 [1] [nM] | Ratio (TZM-bl)
1 | CC[C@H](C)[C@H](NC(=O)[C@H](CC(C)C)NC(=O)[C@H](CO)NC(=O)[C@H](Cc1cnc[nH]1)NC(=O)[C@@H](NC(=O)[C@H](CC(C)C)NC(=O)[C@H](CO)NC(=O)[C@@H](NC(=O)[C@H](Cc1ccc(O)cc1)NC(=O)[C@H](CC(N)=O)NC(=O)[C@H](CC(N)=O)NC(=O)[C@@H](NC(=O)[C@H](CCC(=O)O)NC(=O)[C@H](CCCNC(=N)N)NC(=O)[C@H](CC(=O)O)NC(=O)[C@H](Cc1c[nH]c2ccccc12)NC(=O)[C@H](CCC(=O)O)NC(=O)[C@H](CCSC)NC(=O)[C@H](Cc1c[nH]c2ccccc12)NC(C)=O)[C@@H](C)CC)[C@@H](C)O)[C@@H](C)CC)C(=O)N[C@@H](CCC(=O)O)C(=O)N[C@@H](CCC(=O)O)C(=O)N[C@@H](CO)C(=O)O (Ac-WMEWDREINNYTSLIHSLIEES-OH) | 1240 | 
2 | CC[C@H](C)[C@H](NC(=O)[C@H](CC(C)C)NC(=O)[C@H](CO)NC(=O)[C@H](Cc1cnc[nH]1)NC(=O)[C@@H](NC(=O)[C@H](CC(C)C)NC(=O)[C@H](CO)NC(=O)[C@@H](NC(=O)[C@H](Cc1ccc(O)cc1)NC(=O)[C@H](CC(N)=O)NC(=O)[C@H](CC(N)=O)NC(=O)[C@@H](NC(=O)[C@H](CCC(=O)O)NC(=O)[C@H](CCCNC(=N)N)NC(=O)[C@H](CC(=O)O)NC(=O)[C@H](Cc1c[nH]c2ccccc12)NC(=O)[C@H](CCC(=O)O)NC(=O)[C@H](CCSC)NC(=O)[C@H](Cc1c[nH]c2ccccc12)NCCOCCOCCOC(=O)[C@H](CS)NC(C)=O)[C@@H](C)CC)[C@@H](C)O)[C@@H](C)CC)C(=O)N[C@@H](CCC(=O)O)C(=O)N[C@@H](CCC(=O)O)C(=O)N[C@@H](CO)C(=O)N[C@@H](CCC(N)=O)C(=O)N[C@@H](CC(N)=O)C(=O)N[C@@H](CCC(N)=O)C(=O)N[C@@H](CCC(N)=O)C(=O)N[C@@H](CCC(=O)O)C(=O)N[C@@H](CCCCN)C(=O)N[C@@H](CC(N)=O)C(=O)O (H-[X2]MEWDREINNYTSLIHSLIEESQNQQEKN-OH) | 15.4 | 7.69
3 | CC[C@H](C)[C@H](NC(=O)[C@H](CC(C)C)NC(=O)[C@H](CCC(=O)O)NC(=O)[C@H](CCC(=O)O)NC(=O)[C@@H](NC(=O)[C@H](CCCCN)NC(=O)[C@H](CCCCN)NC(=O)[C@@H](NC(=O)[C@H](Cc1ccc(O)cc1)NC(=O)[C@H](CCC(=O)O)NC(=O)[C@H](CCC(=O)O)NC(=O)[C@@H](NC(=O)[C@H](CCCCN)NC(=O)[C@H](CCCCN)NC(=O)[C@H](CC(=O)O)NC(=O)[C@H](Cc1c[nH]c2ccccc12)NC(=O)[C@H](CCC(=O)O)NC(=O)[C@H](CCC(=O)O)NC(=O)[C@H](Cc1c[nH]c2ccccc12)NC(C)=O)[C@@H](C)CC)[C@@H](C)O)[C@@H](C)CC)C(=O)N[C@@H](CCCCN)C(=O)N[C@@H](CCCCN)C(=O)N[C@@H](CO)C(=O)O (Ac-WEEWDKKIEEYTKKIEELIKKS-OH) | 345 | 
4 | CC[C@H](C)[C@H](NC(=O)[C@H](CC(C)C)NC(=O)[C@H](CO)NC(=O)[C@H](Cc1cnc[nH]1)NC(=O)[C@@H](NC(=O)[C@H](CC(C)C)NC(=O)[C@H](CO)NC(=O)[C@@H](NC(=O)[C@H](Cc1ccc(O)cc1)NC(=O)[C@H](CC(N)=O)NC(=O)[C@H](CC(N)=O)NC(=O)[C@@H](NC(=O)[C@H](CCC(=O)O)NC(=O)[C@H](CCCNC(=N)N)NC(=O)[C@H](CC(=O)O)NC(=O)[C@H](Cc1c[nH]c2ccccc12)NC(=O)[C@H](CCC(=O)O)NC(=O)[C@H](CCSC)NC(=O)[C@H](Cc1c[nH]c2ccccc12)NC(=O)[C@H](CS)NC(C)=O)[C@@H](C)CC)[C@@H](C)O)[C@@H](C)CC)C(=O)N[C@@H](CCC(=O)O)C(=O)N[C@@H](CCC(=O)O)C(=O)N[C@@H](CO)C(=O)N[C@@H](CCC(N)=O)C(=O)N[C@@H](CC(N)=O)C(=O)N[C@@H](CCC(N)=O)C(=O)N[C@@H](CCC(N)=O)C(=O)N[C@@H](CCC(=O)O)C(=O)N[C@@H](CCCCN)C(=O)N[C@@H](CC(N)=O)C(=O)O (Ac-CWMEWDREINNYTSLIHSLIEESQNQQEKN-OH) | 41.6 | 2.84
5 | CC[C@H](C)[C@H](NC(=O)[C@H](CC(C)C)NC(=O)[C@H](CO)NC(=O)[C@H](Cc1cnc[nH]1)NC(=O)[C@@H](NC(=O)[C@H](CC(C)C)NC(=O)[C@H](CO)NC(=O)[C@@H](NC(=O)[C@H](Cc1ccc(O)cc1)NC(=O)[C@H](CC(N)=O)NC(=O)[C@H](CC(N)=O)NC(=O)[C@@H](NC(=O)[C@H](CCC(=O)O)NC(=O)[C@H](CCCNC(=N)N)NC(=O)[C@H](CC(=O)O)NC(=O)[C@H](Cc1c[nH]c2ccccc12)NC(=O)[C@H](CCC(=O)O)NC(=O)[C@H](CCSC)NC(=O)[C@H](Cc1c[nH]c2ccccc12)NC(=O)CCCCCNC(=O)[C@H](CS)NC(C)=O)[C@@H](C)CC)[C@@H](C)O)[C@@H](C)CC)C(=O)N[C@@H](CCC(=O)O)C(=O)N[C@@H](CCC(=O)O)C(=O)N[C@@H](CO)C(=O)N[C@@H](CCC(N)=O)C(=O)N[C@@H](CC(N)=O)C(=O)N[C@@H](CCC(N)=O)C(=O)N[C@@H](CCC(N)=O)C(=O)N[C@@H](CCC(=O)O)C(=O)N[C@@H](CCCCN)C(=O)N[C@@H](CC(N)=O)C(=O)O (Ac-C[Ahx]WMEWDREINNYTSLIHSLIEESQNQQEKN-OH) | 49 | 2.41
6 | CC[C@H](C)[C@H](NC(=O)[C@H](CC(C)C)NC(=O)[C@H](CO)NC(=O)[C@H](Cc1cnc[nH]1)NC(=O)[C@@H](NC(=O)[C@H](CC(C)C)NC(=O)[C@H](CO)NC(=O)[C@@H](NC(=O)[C@H](Cc1ccc(O)cc1)NC(=O)[C@H](CC(N)=O)NC(=O)[C@H](CC(N)=O)NC(=O)[C@@H](NC(=O)[C@H](CCC(=O)O)NC(=O)[C@H](CCCNC(=N)N)NC(=O)[C@H](CC(=O)O)NC(=O)[C@H](Cc1c[nH]c2ccccc12)NC(=O)[C@H](CCC(=O)O)NC(=O)[C@H](CCSC)NC(=O)[C@H](Cc1c[nH]c2ccccc12)NC(=O)CCNCCOCCOCCOC(=O)[C@H](CS)NC(C)=O)[C@@H](C)CC)[C@@H](C)O)[C@@H](C)CC)C(=O)N[C@@H](CCC(=O)O)C(=O)N[C@@H](CCC(=O)O)C(=O)N[C@@H](CO)C(=O)N[C@@H](CCC(N)=O)C(=O)N[C@@H](CC(N)=O)C(=O)N[C@@H](CCC(N)=O)C(=O)N[C@@H](CCC(N)=O)C(=O)N[C@@H](CCC(=O)O)C(=O)N[C@@H](CCCCN)C(=O)N[C@@H](CC(N)=O)C(=O)O (X1-WMEWDREINNYTSLIHSLIEESQNQQEKN-OH) | 14.7 | 8.08
7 | CC[C@H](C)[C@H](NC(=O)[C@H](CC(C)C)NC(=O)[C@H](CO)NC(=O)[C@H](Cc1cnc[nH]1)NC(=O)[C@@H](NC(=O)[C@H](CC(C)C)NC(=O)[C@H](CO)NC(=O)[C@@H](NC(=O)[C@H](Cc1ccc(O)cc1)NC(=O)[C@H](CC(N)=O)NC(=O)[C@H](CC(N)=O)NC(=O)[C@@H](NC(=O)[C@H](CCC(=O)O)NC(=O)[C@H](CCCNC(=N)N)NC(=O)[C@H](CC(=O)O)NC(=O)[C@H](Cc1c[nH]c2ccccc12)NC(=O)[C@H](CCC(=O)O)NC(=O)[C@H](CCSC)NC(=O)[C@H](Cc1c[nH]c2ccccc12)NC(C)=O)[C@@H](C)CC)[C@@H](C)O)[C@@H](C)CC)C(=O)N[C@@H](CCC(=O)O)C(=O)N[C@@H](CCC(=O)O)C(=O)N[C@@H](CO)C(=O)N[C@@H](CCC(N)=O)C(=O)N[C@@H](CC(N)=O)C(=O)N[C@@H](CCC(N)=O)C(=O)N[C@@H](CCC(N)=O)C(=O)N[C@@H](CCC(=O)O)C(=O)N[C@@H](CCCCN)C(=O)N[C@@H](CC(N)=O)C(=O)O (Ac-WMEWDREINNYTSLIHSLIEESQNQQEKN-OH) | 118 | 
